Source: patent publication US20240025906A1 (NEURON23, INC., priority 2022, published 2024)
Where two headings read alike, the source gives them in different places.

Experiments:
TYK2 JH2 = biological target: T1, TYK2 JH2 (Homo sapiens, UniProt P29597); test: TYK2 JH2 binding assay (KINOMEscan KdELECT competitive binding); conditions: TYK2 JH2 domain
T1 construct: purchased DiscoverX (KINOMEscan KdELECT service); host or cells: E. coli BL21-derived (T7 phage display) or HEK-293
Method in brief: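 The assay measures displacement of DNA- or phage-tagged TYK2 pseudokinase domain from an affinity resin; compound binding lowers the amount captured, read by qPCR. Incubation lasts 1 h at room temperature.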

[1] = tested on: JAK1/TYK2 pSTAT5 (Tyr694/699) in THP-1 cell line; test: IFNa-stimulated JAK1/TYK2 pSTAT5 (Tyr694/699) inhibition cellular assay, AlphaLISA; type: cell-based; conditions: Homo sapiens, THP-1 cells, AlphaLISA (Assay B)
Method in brief: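 Compound dilutions were dispensed first, and HBSS-suspended THP-1 cells were added on top (final top concentration 10000 nM, 6-fold series). After 1 h at 37 °C, IFNa (100 ng/mL as added) was applied for 30 min. Cells were then lysed and pSTAT5 was quantified by AlphaLISA.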

[2] = KINOMEscan KdELECT (Assay A), read-out: Biochemical TYK2_DiscoverX_JH2_BND_Kd
[3] = IFNa-stimulated pSTAT5 (Tyr694/699), read-out: Cellular_THP1_IFNa-pSTATS_TYK2
[4] = DiscoverX KINOMEscan KdELECT (Assay A), read-out: Biochemical TYK2_DiscoverX_JH2_BND_Kd
[5] = IFNa-stimulated, read-out: Cellular_THP1_IFNa-pSTATS_TYK2
[6] = KINOMEscan KdELECT (Assay A), read-out: Biochemical TYK2_JH2_Kd
[7] = IFNa-stimulated, read-out: Cellular THP1_IFNa-pSTATS_IC50

T1 sequence (P29597 589-875 limits assumed): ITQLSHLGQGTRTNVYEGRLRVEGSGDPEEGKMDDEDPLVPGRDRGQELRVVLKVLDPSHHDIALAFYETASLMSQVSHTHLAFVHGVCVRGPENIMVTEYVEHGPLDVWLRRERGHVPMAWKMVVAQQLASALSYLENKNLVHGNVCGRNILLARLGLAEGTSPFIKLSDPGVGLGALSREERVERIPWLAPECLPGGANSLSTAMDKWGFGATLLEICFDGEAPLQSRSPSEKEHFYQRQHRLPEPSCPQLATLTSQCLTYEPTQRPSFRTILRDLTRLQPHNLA

Kd (TYK2 JH2; [2]) | Kd (TYK2 JH2; [4]) | IC50 [1, 5] | SMILES | further results
≤ 0.1 µM | – | – | CCC1CN(c2ccc3nc(-c4cnc(NC)c5cnc(NC(=O)[C@H]6C[C@H]6C)cc45)nn3c2)CCO1 (stereo partly drawn) [Example 1077, (1S,2R)-N-[5-[6-(2-ethylmorpholin-4-yl)-[1,2,4]triazolo[1,5-a]pyridin-2-yl]-8-(methylamino)-2,7-naphthyridin-3-yl]-2-methyl-cyclopropanecarboxamide] | IC50 [1, 3]: ≤ 0.5 µM
≤ 0.1 µM | – | – | CNc1ncc(C#Cc2ccc3c(c2)C(=O)N(C)C3)c2cc(NC(=O)C3CC3)ncc12 [Example 1017, N-(5-((2-methyl-3-oxoisoindolin-5-yl)ethynyl)-8-(methylamino)-2,7-naphthyridin-3-yl)cyclopropanecarboxamide] | IC50 [1, 3]: ≤ 0.5 µM
– | ≤ 0.1 µM | ≤ 0.5 µM | CNc1ncc(-c2nc3cc(N4CC5(CN(C)C5)C4)ccc3o2)c2cc(NC(=O)C3CC3)ncc12 [Example 300, N-(5-(5-(6-methyl-2,6-diazaspiro[3.3]heptan-2-yl)benzo[d]oxazol-2-yl)-8-(methylamino)-2,7-naphthyridin-3-yl)cyclopropanecarboxamide] | –
– | – | – | CNc1ncc(CO)c2cc(NC(=O)C3CC3)ncc12 [Example 44, N-(5-(hydroxymethyl)-8-(methylamino)-2,7-naphthyridin-3-yl)cyclopropanecarboxamide] | Kd (TYK2 JH2; [6]): ≤ 0.1 µM; IC50 [1, 7]: > 0.5 µM
≤ 0.1 µM | – | ≤ 0.5 µM | CNc1ncc(C#Cc2ccc(C(C)(C)O)cn2)c2cc(NC(=O)C3CC3)ncc12 [Example 662, N-(5-((5-(2-hydroxypropan-2-yl)pyridin-2-yl)ethynyl)-8-(methylamino)-2,7-naphthyridin-3-yl)cyclopropanecarboxamide] | –
≤ 0.1 µM | – | ≤ 0.5 µM | CNc1ncc(C#Cc2ccc3c(cnn3C(F)F)c2)c2cc(NC(=O)C3CC3)ncc12 [Example 723, N-(5-((1-(difluoromethyl)-1H-indazol-5-yl)ethynyl)-8-(methylamino)-2,7-naphthyridin-3-yl)cyclopropanecarboxamide] | –
– | ≤ 0.1 µM | ≤ 0.5 µM | CNc1ncc(-c2nc3ccc(N4C[C@@H]5C[C@H]4CO5)cn3n2)c2cc(NC(=O)C3CC3)ncc12 [Example 488, N-(5-(6-((1S,4S)-2-oxa-5-azabicyclo[2.2.1]heptan-5-yl)-[1,2,4]triazolo[1,5-a]pyridin-2-yl)-8-(methylamino)-2,7-naphthyridin-3-yl)cyclopropanecarboxamide] | –
– | ≤ 0.1 µM | ≤ 0.5 µM | CNc1ncc(-c2nc3c(OC)c(OC)ccc3o2)c2cc(NC(=O)C3CC3)ncc12 [Example 224, N-(5-(4,5-dimethoxybenzo[d]oxazol-2-yl)-8-(methylamino)-2,7-naphthyridin-3-yl)cyclopropanecarboxamide] | –
– | ≤ 0.1 µM | ≤ 0.5 µM | CNc1ncc(-c2nc3ccc(Cl)cc3o2)c2cc(NC(=O)C3CC3)ncc12 [Example 219, N-(5-(6-chlorobenzo[d]oxazol-2-yl)-8-(methylamino)-2,7-naphthyridin-3-yl)cyclopropanecarboxamide] | –
– | ≤ 0.1 µM | ≤ 0.5 µM | CNc1ncc(-c2nc3cc(OC)ccc3o2)c2cc(Nc3ccc(C(C)(C)O)cn3)ncc12 [Example 375, 2-(6-((5-(5-methoxybenzo[d]oxazol-2-y1)-8-(methylamino)-2,7-naphthyridin-3-yl)amino)pyridin-3-yl)propan-2-ol] | –
≤ 0.1 µM | – | ≤ 0.5 µM | CNc1ncc(-c2ccc(-c3cnn(C)n3)cc2)c2cc(NC(=O)C3CC3)ncc12 [Example 851, N-(5-(4-(2-methyl-2H-1,2,3-triazol-4-yl)phenyl)-8-(methylamino)-2,7-naphthyridin-3-yl)cyclopropanecarboxamide] | –
– | ≤ 0.1 µM | ≤ 0.5 µM | CNc1ncc(-c2nc3ccc(N4CC(C)OC(C)C4)cn3n2)c2cc(NC(=O)C3CC3)ncc12 (racemic) [Example 480, N-(5-(6-(2,6-dimethylmorpholino)-[1,2,4]triazolo[1,5-a]pyridin-2-yl)-8-(methylamino)-2,7-naphthyridin-3-yl)cyclopropanecarboxamide (trans racemate)] | –
≤ 0.1 µM | – | – | CC[C@@H]1CN(c2ccc3nc(-c4cnc(NC)c5cnc(NC(=O)[C@H]6C[C@H]6C)cc45)nn3c2)CCO1 (single isomer, unassigned) [Example 1078] | IC50 [1, 3]: ≤ 0.5 µM
≤ 0.1 µM | – | ≤ 0.5 µM | CNc1ncc(C#Cc2cccc(OC)c2)c2cc(NC(=O)C3CC3)ncc12 [Example 629, N-(5-((3-methoxyphenyl)ethynyl)-8-(methylamino)-2,7-naphthyridin-3-yl)cyclopropanecarboxamide] | –
≤ 0.1 µM | – | ≤ 0.5 µM | CNc1ncc(C#Cc2ccc(COC)cn2)c2cc(NC(=O)C3CC3)ncc12 [Example 964, N-[5-[2-[5-(methoxymethyl)-2-pyridyl]ethynyl]-8-(methylamino)-2,7-naphthyridin-3-yl]cyclopropanecarboxamide] | –
– | ≤ 0.1 µM | ≤ 0.5 µM | CNc1ncc(-c2nc3ccc(C(F)(F)F)cn3n2)c2cc(NC(=O)C3CC3)ncc12 [Example 496, N-(8-(methylamino)-5-(6-(trifluoromethyl)-[1,2,4]triazolo[1,5-a]pyridin-2-yl)-2,7-naphthyridin-3-yl)cyclopropanecarboxamide] | –
– | – | – | CNc1ncc(-c2ccc(F)cc2)c2cc(NC(=O)C3CC3)ncc12 [Example 18, N-(5-(4-fluorophenyl)-8-(methylamino)-2,7-naphthyridin-3-yl)cyclopropanecarboxamide] | Kd (TYK2 JH2; [6]): ≤ 0.1 µM; IC50 [1, 7]: > 0.5 µM
– | ≤ 0.1 µM | ≤ 0.5 µM | CNc1ncc(-c2nc3cccc(Cl)n3n2)c2cc(NC(=O)C3CC3)ncc12 [Example 490, N-(5-(5-chloro-[1,2,4]triazolo[1,5-a]pyridin-2-yl)-8-(methylamino)-2,7-naphthyridin-3-yl)cyclopropanecarboxamide] | –
– | ≤ 0.1 µM | ≤ 0.5 µM | CNc1ncc(C#Cc2ccc(OC)cc2)c2cc(NC(=O)C3CC3)ncc12 [Example 591, N-(5-((4-methoxyphenyl)ethynyl)-8-(methylamino)-2,7-naphthyridin-3-yl)cyclopropanecarboxamide] | –
≤ 0.1 µM | – | ≤ 0.5 µM | CNc1ncc(C#Cc2ccc(OC)cn2)c2cc(NC(=O)[C@H]3C[C@H]3C(F)F)ncc12 (single isomer, unassigned) [Example 745] | –
– | – | – | CNc1ncc(-c2ccnn2C)c2cc(NC(=O)C3CC3)ncc12 [Example 6, N-(5-(1-methyl-1H-pyrazol-5-yl)-8-(methylamino)-2,7-naphthyridin-3-yl)cyclopropanecarboxamide] | Kd (TYK2 JH2; [6]): ≤ 0.1 µM; IC50 [1, 7]: > 0.5 µM
– | ≤ 0.1 µM | ≤ 0.5 µM | CNc1ncc(-c2nc3ccc(N4CCOCC4)cn3n2)c2cc(NC(=O)[C@@H]3C[C@@H]3C)ncc12 [Example 530, (1R,2S)-2-methyl-N-(8-(methylamino)-5-(6-morpholino-[1,2,4]triazolo[1,5-a]pyridin-2-yl)-2,7-naphthyridin-3-yl)cycloproapne-1-carboxamide] | –
≤ 0.1 µM | – | ≤ 0.5 µM | CNc1ncc(C#Cc2ccc(OC(F)(F)F)cn2)c2cc(NC(=O)C3CC3)ncc12 [Example 644, N-(8-(methylamino)-5-((5-(trifluoromethoxy)pyridin-2-yl)ethynyl)-2,7-naphthyridin-3-yl)cyclopropanecarboxamide] | –
≤ 0.1 µM | – | ≤ 0.5 µM | CNc1ncc(C#Cc2ccc(OCC(F)(F)F)cn2)c2cc(NC(=O)C3CC3)ncc12 [Example 993, N-[8-(methylamino)-5-[2-[5-(2,2,2-trifluoroethoxy)-2-pyridyl]ethynyl]-2,7-naphthyridin-3-yl]cyclopropanecarboxamide] | –
– | – | – | CNc1ncc(-c2ccc3c(c2)OCO3)c2cc(NC(=O)C3CC3)ncc12 [Example 21, N-(5-(benzo[d][1,3]dioxol-5-yl)-8-(methylamino)-2,7-naphthyridin-3-yl)cyclopropanecarboxamide] | Kd (TYK2 JH2; [6]): ≤ 0.1 µM; IC50 [1, 7]: > 0.5 µM
≤ 0.1 µM | – | ≤ 0.5 µM | [2H]C1([2H])Oc2ccc(C#Cc3cnc(NC)c4cnc(NC(=O)C5CC5)cc34)cc2O1 [Example 812, N-(5-((benzo[d][1,3]dioxol-5-yl-2,2-d2)ethynyl)-8-(methylamino)-2,7-naphthyridin-3-yl)cyclopropanecarboxamide] | –
– | ≤ 0.1 µM | ≤ 0.5 µM | CNc1ncc(-c2nc3c(CC#N)cccc3o2)c2cc(NC(=O)C3CC3)ncc12 [Example 273, N-(5-(4-(cyanomethyl)benzo[d]oxazol-2-yl)-8-(methylamino)-2,7-naphthyridin-3-yl)cyclopropanecarboxamide] | –

SMILES | Kd (TYK2 JH2; [2]) | Kd (TYK2 JH2; [4]) | IC50 [1, 5] | further results
CNc1ncc(-c2nc3cc(N4CC5COCC(C4)N5C)ccc3o2)c2cc(NC(=O)C3CC3)ncc12 [Example 447, N-(5-(5-(9-methyl-3-oxa-7,9-diazabicyclo[3.3.1]nonan-7-yl)benzo[d]oxazol-2-yl)-8-(methylamino)-2,7-naphthyridin-3-yl)cyclopropanecarboxamide] | – | ≤ 0.1 µM | ≤ 0.5 µM | –
